The nature of the data set: gradient 5% acetonitrile 3 min, to 50% in 2 min, to 85% in 15 min, held 3 min, 100 µL/min. The note with it: column: Zorbax Extend-C18 2.1 x 50 mm; eluents: water / acetonitrile, 0.1% formic acid. The gist of the method:
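A Zorbax Extend-C18 column (2.1 × 50 mm, 1.8 μm) run at 100 μL/min with water and acetonitrile, both containing 0.1% formic acid, separated mixtures of ~100 pure standards. The HPLC was coupled to a quadrupole time-of-flight mass spectrometer operated in positive and negative ionization mode, with dead and dwell volumes of 40 μL and 900 μL. Each retention time was taken from a computationally picked adduct peak that was then manually inspected.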
For the compound `CN(C)C(=O)c1cn(C2CN(C(=O)c3cccc4[nH]ccc34)C2)nn1`, the RP-LC retention time stood at 608 s.
With `O=C(NCCc1ccncc1)C1CN(C(=O)c2cccs2)CC12CCCCC2` (centres undefined), the RP-LC retention time is 610 s.
As for `CCc1cc(=O)n(CC(=O)NCc2ccccc2OC)c(N)n1`, the RP-LC retention time stood at 602 s.
Compound `COc1ccc(C2C(C(=O)NCC3CCCO3)c3cc(OC)c(OC)cc3C(=O)N2C)cc1OC` (centres undefined) showed an RP-LC retention time of 652 s.
In the case of `O=C(Nc1nnc2n1CCS2)c1cc(Br)ccc1Cl` it was 657 s; in that of `Cc1noc(C)c1S(=O)(=O)N1CCC(N2CC3(CCCCC3)C2c2ccccc2)CC1` (centres undefined), 790 s.
The result for `CCS(=O)(=O)N1CCC(Cc2nncn2Cc2ccccc2)C1` (centres undefined) reads 643 s.
In the case of `CNC(=O)c1c(-c2ccc(F)cc2)oc2cc(N(CCO)S(C)(=O)=O)c(C3CC3)cc12` it was 838 s.
Compound `Cc1ccc(Sc2nccnc2N2CCCC(C(=O)Nc3ccc(Br)cc3)C2)cc1` (centres undefined) returned an RP-LC retention time of 1280 s.
In the case of `Cn1c(CCCC(=O)O)nc2cc(N(CCCl)CCCl)ccc21` it was 747 s; in that of `COc1cccc(NC(=O)N2CCN(c3ccc(Nc4cc(C)ccn4)nn3)CC2)c1`, 588 s; in that of `COC[C@@H]1CN(c2cnccn2)C[C@H]1C(=O)NCCn1ccnc1`, 498 s.
In the case of `CCOc1ccc(S(=O)(=O)N2CCCC(C(=O)NCc3ccccc3)C2)cc1` (centres undefined) it was 878 s; in that of `O=C(Nc1ccc(Cl)cc1)N1CCC(N2CCN(Cc3ccccc3)C(=O)C2=O)CC1`, 764 s; in that of `Cc1ccc(-c2nnc(C)c(NCCN3CCOCC3)n2)cc1`, 547 s.
Compound `COC1CCOC2(CCN(C(=O)c3sccc3C)CC2)C1` (centres undefined) gave an RP-LC retention time of 732 s.
For the compound `CCc1nc(-c2cc(S(=O)(=O)N3CCC(C(=O)NC4CCCCCC4)CC3)c(C)s2)no1`, the RP-LC retention time came out at 1070 s.
In the case of `Cc1cc(C(=O)Nc2nnc(-c3cccs3)o2)no1` it was 632 s; in that of `CC(C)CN1CCN(C(=O)CN2CCN(Cc3ccc(F)cc3Cl)C2=O)CC1`, 634 s; in that of `COc1ccc(S(=O)(=O)N2CCCC(C(=O)Nc3ccccc3F)C2)cc1Cl` (centres undefined), 985 s.
The result for `Cc1ccccc1S(=O)(=O)N1CCC2(CC1)CC(OCC1CC1)CCO2` (centres undefined) reads 1080 s; that for `Cc1cccc(NC(=O)CC(=O)Nc2ccc3nc4n(c(=O)c3c2)CCCCC4)n1`, 624 s; that for `O=C(Cn1ccc2ccc(N3CCOCC3)nc21)NCc1ccc(C(F)(F)F)cc1`, 958 s.
Regarding `CCc1nnc(-c2ccc(S(=O)(=O)N3CCCCC3)o2)o1`, the RP-LC retention time worked out at 824 s.
In the case of `COCC1CN(C)CC12CCN(S(=O)(=O)c1ccc(F)c(C)c1)CC2` (centres undefined) it was 659 s; in that of `O=C(Cn1cccc1-c1nnc(C2CCC2)o1)NCc1ccc2c(c1)OCO2`, 836 s.
The result for `CCOC(=O)c1c(C)[nH]c(C)c1S(=O)(=O)NCC(=O)N1CCN(c2ccccn2)CC1` reads 599 s; that for `CCc1nccn1Cc1nc(-c2ccc3c(c2)OCO3)no1`, 621 s; that for `O=C(Nc1ccc2c(c1)OCO2)Nc1ccc2c(c1)N(C(=O)c1ccccc1)CC2`, 882 s.
As for `Cc1ccc(C2Cn3nnc(-c4nc(-c5ccc(C(F)(F)F)cc5)no4)c3CO2)c(C)c1` (centres undefined), the RP-LC retention time was determined as 1300 s.
Compound `Cc1cccc(Sc2nccnc2N2CCC(C(=O)NCCC3=CCCCC3)CC2)c1` showed an RP-LC retention time of 1220 s.
The compound `O=c1n(CC2CC2)c2cccnc2n1[C@H]1CCCN(S(=O)(=O)c2cccnc2)C1` gave an RP-LC retention time of 835 s.
In the case of `O=S(=O)(c1cccn2c(SCc3cc(F)cc(F)c3)nnc12)N1CCCC1` it was 845 s.
The result for `O=C(NC1CCCCCC1)c1nc(Nc2ccc(F)cc2)c2ccccc2n1` reads 943 s.
In turn, `CN1C(=O)[C@H]2CN(Cc3cccc(OC(F)(F)F)c3)C[C@H]2C1=O` showed an RP-LC retention time of 682 s.
Take `CCC(C(=O)NCCc1c[nH]c2ccccc12)n1c2ccccc2c2cnn(C)c(=O)c21` (centres undefined): the RP-LC retention time stood at 916 s.
Regarding `Cc1nnc(-c2ccc3ccn(CC(=O)Nc4ncccc4C)c3c2)o1`, the RP-LC retention time amounted to 618 s.
The result for `CC(C)CCNC(=O)C1CCN(c2nc3ccsc3c(=O)n2-c2ccccc2)CC1` reads 838 s; that for `Cc1ccc(CNC(=O)Cc2nnc(-c3ccccn3)o2)cc1`, 692 s.
In the case of `COc1cc(-c2nc3ncccn3c2Nc2cccc(C)c2)ccc1O`, the RP-LC retention time came out at 647 s.
Compound `COc1ccc(-c2cn3cccnc3n2)cc1NC(=O)c1ccc(OC)c(OC)c1` showed an RP-LC retention time of 641 s.
The result for `Cc1cc(C(=O)NC2CCCC2)nc2cc(-c3cccs3)nn12` reads 655 s; that for `O=c1ccc(-c2ccc3c(c2)OCO3)nn1Cc1nc(-c2ccc3c(c2)OCO3)no1`, 934 s; that for `COCCNC(=O)Nc1nnc(-c2ccccc2Cl)o1`, 647 s.
The result for `CCCN(CC1CCOC1)C(=O)Nc1ccc(OC)c(F)c1` (centres undefined) reads 777 s; that for `CCc1cc(C(=O)Nc2ccc(Cl)cc2)nc2ccnn12`, 1080 s; that for `COc1ccc(NC(=O)Nc2c(-c3cccc(C)c3)nc3ccccn23)cc1`, 658 s.
The result for `Cc1cccc(C)c1NC(=O)C1CCCN(c2nc3c(s2)c(C)nn3-c2cccc(F)c2)C1` (centres undefined) reads 1230 s; that for `Cc1cccc(NS(=O)(=O)c2ccc(-c3c(C)noc3C)cc2)c1`, 881 s; that for `CCc1ccccc1NS(=O)(=O)c1cc(-c2[nH]ncc2C(=O)N(C)C)oc1C`, 729 s.
On to `COCCOC1CN(C2CCN(Cc3ccccc3C#N)CC2)C12CCCCC2` (centres undefined), for which the RP-LC retention time is 572 s.
The result for `COC(=O)c1cnc2nc(C)ccc2c1Nc1ccc(Br)cc1` reads 705 s; that for `CCOC(=O)c1c(C)[nH]c(C(=O)N2CCCC(C(=O)NCc3ccccc3C)C2)c1C` (centres undefined), 814 s; that for `CC1(C)CC(=O)c2cn(-c3ccccc3)c(=O)c(C(=O)Nc3ccc(F)cc3F)c2C1`, 1090 s.
In the case of `Cc1ccc(C)c(NC(=O)C2CCCN(c3ncnc4c3nc3n4CCCCC3)C2)c1` (centres undefined) it was 793 s; in that of `O=c1ccc(-c2ccccc2)nn1CCc1nc(-c2ccc3c(c2)OCO3)no1`, 900 s; in that of `Cc1cccc2nnc(N3CCN(C(=O)c4cccnc4)CC3)n12`, 515 s.
The compound `Cc1ccc(C)c2sc(NC(=O)c3cccc(N4C(=O)CCC4=O)c3)nc12` gave an RP-LC retention time of 852 s.
The compound `COc1ccc(NC(=O)c2ccc3c(c2)OCCO3)c([N+](=O)[O-])c1` yielded an RP-LC retention time of 874 s.
On to `C=CCN1CCN(c2nc3cc(C(=O)OC)ccc3c(=O)n2-c2ccc(F)c(Cl)c2)CC1`, for which the RP-LC retention time worked out at 699 s.
With `Cc1[nH]c(C)c(S(=O)(=O)N2CCC(C(=O)N3CCCCC3C)CC2)c1C(=O)N1CCCCC1` (centres undefined), the RP-LC retention time came to 724 s.
The result for `CCCN1C(=O)c2c(C(=O)NCc3ccc(OC(C)C)cc3)ncn2CC1(C)C(=O)NC1CCCC1` (centres undefined) reads 923 s.
As to `CCc1ccc(-c2ccc(=O)n(Cc3nc(-c4ccc5c(c4)OCO5)no3)n2)cc1`, the RP-LC retention time was 1080 s.
In the case of `CCc1cc(C(=O)NCC2CCCO2)nc2cc(-c3ccccn3)nn12` (centres undefined) it was 739 s; in that of `CCOc1ccc(C(C)NC(=O)c2cn3c(n2)CN(CC(C)C)CC3)cc1` (centres undefined), 640 s.
In the case of `CNC(=O)Cc1csc(NC(=O)c2csc(Nc3cccc(C)n3)n2)n1` it was 711 s; in that of `COc1cccc(N2CCN(C(=O)c3cc4c(-c5cccs5)nn(-c5ccccc5)c4n3C)CC2)c1`, 1180 s; in that of `c1ccc(C(NCc2cccnc2)(c2ccccc2)c2ccccc2)cc1`, 831 s.
For `CCc1cccc(C)c1NC(=O)Cn1c(=O)n(-c2ccccc2)c(=O)c2c1cc(C)n2C`, the RP-LC retention time amounted to 833 s.
The result for `COc1ccc2c(c1)C1(CCN(C(=O)c3cccc(Br)c3)C1)C(=O)N2` (centres undefined) reads 754 s; that for `COc1ccc(Br)c(C(=O)N2CC(c3nc(-c4cccc(Cl)c4)no3)C2)c1`, 1000 s; that for `COc1ccccc1CCC(=O)Nc1ccc2c(c1)Sc1ncccc1C(=O)N2C`, 822 s.
The result for `Cc1c(C(=O)C(=O)Nc2ccc(F)cc2)c2ccccc2n1C` reads 921 s; that for `O=C(Nc1ccc(Br)cc1F)N1CCc2nc[nH]c2C1`, 593 s.
In the case of `O=C(NCCN1CCCCCC1)C1CCCN(c2nn3c(=O)c4c(nc3s2)CCCC4)C1` (centres undefined) it was 608 s.
As for `COc1ccc(N2CCN(C(=O)Cn3cccc3-c3nnc(-c4ccccc4)o3)CC2)cc1`, the RP-LC retention time was found to be 907 s.
Compound `O=c1ccc(-c2nc(-c3ccncc3)no2)nn1Cc1ccc(Cl)cc1` registered an RP-LC retention time of 909 s.
In the case of `CCCN(C)c1nccnc1OC1CCN(C(=O)C(CC)CC)C1` (centres undefined), the RP-LC retention time stood at 842 s.
In the case of `COc1cccc(CNC(=O)CN2C(=O)NC3(CCC(C(C)(C)C)CC3)C2=O)c1OC` (centres undefined) it was 943 s.

The values above are taken from the METLIN SMRT retention time set (Domingo-Almenara et al. 2019).
